# In patent publication US20250171457A1, “NITROGEN-CONTAINING HETEROCYCLIC COMPOUND HAVING NRF2 ACTIVATION EFFECT” (CHUGAI SEIYAKU KABUSHIKI KAISHA, priority 2022, published 2025):
# Test system: Nrf2 transcriptional activity (pARE-Luc reporter) in HepG2 cells
# Assay: In vitro Nrf2 transcriptional activity measurement by ARE-dependent reporter assay in HepG2 cell
# Format: cell-based, human
# Conditions: Homo sapiens; HepG2 cells transfected with pARE-Luc, 4 hours at 37° C.; luciferase activity of Example 1-54 or Example 17-23 at 3.75 μM defined as 100%
# Protocol: Test Example 1: In Vitro Nrf2 Transcriptional Activity Measurement by ARE-Dependent Reporter Assay in HepG2 Cell
# A human liver cancer-derived cell line HepG2 was transfected with pGL4.37 vector (pARE-Luc, Promega Corp.) and incubated overnight at 37° C. in a humidified atmosphere containing 5% CO2. The cells were dissociated by trypsin treatment, inoculated to a 384-well plate supplemented with a test compound, and incubated at 37° C. for 4 hours. Then, Bright-Glo Reagent (Promega Corp.) was added to the plate, and luciferase activity was measured with Envision plate reader.
# Luciferase activity obtained through the action of the compound of Example 1-54 or Example 17-23 at a concentration of 3.75 μM was defined as 100%. The luciferase activity of each well was converted to a response rate (%). The dose-response curve of the compound of each Example was prepared to calculate a 50% effective concentration (EC50).
row,SMILES,EC50
1,"CO[C@@H]1CC2(CN(c3cc(Cl)c(C(=O)N4COc5c(cccc5-c5cc(N6C7CCC6COC7)c(C(=O)O)cc5F)C4)c(Cl)c3)C2)[C@H]1C (racemic) [Compound 1-86, 4-[3-[2,6-Dichloro-4-[rac-(6R,7R)-6-methoxy-7-methyl-2-azaspiro[3.3]heptan-2-yl]benzoyl]-2,4-dihydro-1,3-benzoxazin-8-yl]-5-fluoro-2-(3-oxa-8-azabicyclo[3.2.1]octan-8-yl)benzoic acid]",1.1 nM
2,"CO[C@H]1CC2(CN(c3cc(Cl)c(C(=O)N4COc5c(cccc5-c5cc(N6C7CCC6COC7)c(C(=O)O)cc5F)C4)c(Cl)c3)C2)[C@H]1C (racemic) [Compound 1-87, 4-[3-[2,6-Dichloro-4-[rac-(6R,7S)-6-methoxy-7-methyl-2-azaspiro[3.3]heptan-2-yl]benzoyl]-2,4-dihydro-1,3-benzoxazin-8-yl]-5-fluoro-2-(3-oxa-8-azabicyclo[3.2.1]octan-8-yl)benzoic acid]",1 nM
3,"CO[C@H]1C[C@H]2CC[C@@H](C1)N2c1cc(Cl)c(C(=O)N2COc3c(cccc3-c3cc(N4C5CCC4COC5)c(C(=O)O)cc3F)C2)c(Cl)c1 (racemic) [Compound 6-11, 4-[3-[2,6-Dichloro-4-[rac-(1R,3r,5S)-3-methoxy-8-azabicyclo[3.2.1]octan-8-yl]benzoyl]-2,4-dihydro-1,3-benzoxazin-8-yl]-5-fluoro-2-(3-oxa-8-azabicyclo[3.2.1]octan-8-yl)benzoic acid]",1.5 nM
4,"CO[C@H]1C[C@H]2CN(c3cc(Cl)c(C(=O)N4COc5c(cccc5-c5cc(N6C7CCC6COC7)c(C(=O)O)cc5F)C4)c(Cl)c3)C[C@H]21 (racemic) [Compound 6-12, 4-[3-[2,6-Dichloro-4-[rac-(1R,5S,6S)-6-methoxy-3-azabicyclo[3.2.0]heptan-3-yl]benzoyl]-2,4-dihydro-1,3-benzoxazin-8-yl]-5-fluoro-2-(3-oxa-8-azabicyclo[3.2.1]octan-8-yl)benzoic acid]",3.9 nM
5,"COC1CCC12CN(c1cc(Cl)c(C(=O)N3COc4c(cccc4-c4cc(N5C6CCC5COC6)c(C(=O)O)cc4F)C3)c(Cl)c1)C2 (racemic) [Compound 6-13, 4-[3-[2,6-Dichloro-4-(rac-7-methoxy-2-azaspiro[3.3]heptan-2-yl)benzoyl]-2,4-dihydro-1,3-benzoxazin-8-yl]-5-fluoro-2-(3-oxa-8-azabicyclo[3.2.1]octan-8-yl)benzoic acid]",3.8 nM
6,"COCCN1CCN(c2cc(Cl)c(C(=O)N3COc4c(cccc4-c4cc(N5CCOCC5C#N)c(C(=O)O)cc4F)C3)c(Cl)c2)CC1 (racemic) [Compound 20-10, rac-2-(3-Cyanomorpholin-4-yl)-4-[3-[2,6-dichloro-4-[4-(2-methoxyethyl)piperazin-1-yl]benzoyl]-2,4-dihydro-1,3-benzoxazin-8-yl]-5-fluorobenzoic acid]",25 nM
7,"O=C(O)c1cc(F)c(-c2cccc3c2OCN(C(=O)c2c(Cl)cc(OC4CCOC4)cc2Cl)C3)cc1N1C2CCC1COC2 (stereo in doubt) [Compound 4-36, 4-[3-[2,6-Dichloro-4-[(3R)-oxolan-3-yl]oxybenzoyl]-2,4-dihydro-1,3-benzoxazin-8-yl]-5-fluoro-2-(3-oxa-8-azabicyclo[3.2.1]octan-8-yl)benzoic acid]",8.7 nM
8,"O=C(O)c1cc(F)c(-c2cccc3c2OCN(C(=O)c2c(Cl)cc(N4CC5(CCCO5)C4)cc2Cl)C3)cc1N1C2CCC1COC2 [Compound 1-1, 4-[3-[2,6-Dichloro-4-(5-oxa-2-azaspiro[3.4]octan-2-yl)benzoyl]-2,4-dihydro-1,3-benzoxazin-8-yl]-5-fluoro-2-(3-oxa-8-azabicyclo[3.2.1]octan-8-yl)benzoic acid]",2.8 nM
9,"O=C(O)c1cc(F)c(-c2cccc3c2OCN(C(=O)c2c(Cl)cc(N4CC5(CCO5)C4)cc2Cl)C3)cc1N1C2CCC1COC2 [Compound 1-2, 4-[3-[2,6-Dichloro-4-(1-oxa-6-azaspiro[3.3]heptan-6-yl)benzoyl]-2,4-dihydro-1,3-benzoxazin-8-yl]-5-fluoro-2-(3-oxa-8-azabicyclo[3.2.1]octan-8-yl)benzoic acid]",8.6 nM
10,"O=C(O)c1cc(F)c(-c2cccc3c2OCN(C(=O)c2c(Cl)cc(N4CC5(CCOC5)C4)cc2Cl)C3)cc1N1C2CCC1COC2 [Compound 1-3, 4-[3-[2,6-Dichloro-4-(6-oxa-2-azaspiro[3.4]octan-2-yl)benzoyl]-2,4-dihydro-1,3-benzoxazin-8-yl]-5-fluoro-2-(3-oxa-8-azabicyclo[3.2.1]octan-8-yl)benzoic acid]",5.8 nM
11,"O=C(O)c1cc(F)c(-c2cccc3c2OCN(C(=O)c2c(Cl)cc(N4C5COCC4C5)cc2Cl)C3)cc1N1C2CCC1COC2 [Compound 1-5, 4-[3-[2,6-Dichloro-4-(3-oxa-6-azabicyclo[3.1.1]heptan-6-yl)benzoyl]-2,4-dihydro-1,3-benzoxazin-8-yl]-5-fluoro-2-(3-oxa-8-azabicyclo[3.2.1]octan-8-yl)benzoic acid]",3.1 nM
12,"O=C(O)c1cc(F)c(-c2cccc3c2OCN(C(=O)c2c(Cl)cc(N4CC5(CC(O)C5)C4)cc2Cl)C3)cc1N1C2CCC1COC2 [Compound 1-6, 4-[3-[2,6-Dichloro-4-(6-hydroxy-2-azaspiro[3.3]heptan-2-yl)benzoyl]-2,4-dihydro-1,3-benzoxazin-8-yl]-5-fluoro-2-(3-oxa-8-azabicyclo[3.2.1]octan-8-yl)benzoic acid]",9.6 nM
13,"O=C(O)c1cc(F)c(-c2cccc3c2OCN(C(=O)c2c(Cl)cc(N4CC5(C4)CC5(F)F)cc2Cl)C3)cc1N1C2CCC1COC2 [Compound 1-7, 4-[3-[2,6-Dichloro-4-(2,2-difluoro-5-azaspiro[2.3]hexan-5-yl)benzoyl]-2,4-dihydro-1,3-benzoxazin-8-yl]-5-fluoro-2-(3-oxa-8-azabicyclo[3.2.1]octan-8-yl)benzoic acid]",2 nM
14,"COC1(C(F)F)CN(c2cc(Cl)c(C(=O)N3COc4c(cccc4-c4cc(N5C6CCC5COC6)c(C(=O)O)cc4F)C3)c(Cl)c2)C1 [Compound 1-8, 4-[3-[2,6-Dichloro-4-[3-(difluoromethyl)-3-methoxyazetidin-1-yl]benzoyl]-2,4-dihydro-1,3-benzoxazin-8-yl]-5-fluoro-2-(3-oxa-8-azabicyclo[3.2.1]octan-8-yl)benzoic acid]",2.2 nM
15,"COC1CN(c2cc(Cl)c(C(=O)N3COc4c(cccc4-c4cc(N5C6CCC5COC6)c(C(=O)O)cc4F)C3)c(Cl)c2)C1(C)C (stereo not shown) [Compound 1-9, 4-[3-[2,6-Dichloro-4-(3-methoxy-2,2-dimethylazetidin-1-yl)benzoyl]-2,4-dihydro-1,3-benzoxazin-8-yl]-5-fluoro-2-(3-oxa-8-azabicyclo[3.2.1]octan-8-yl)benzoic acid]",4.6 nM
16,"O=C(O)c1cc(F)c(-c2cccc3c2OCN(C(=O)c2c(Cl)cc(N4CC(OC(F)F)C4)cc2Cl)C3)cc1N1C2CCC1COC2 [Compound 1-10, 4-[3-[2,6-Dichloro-4-[3-(difluoromethoxy)azetidin-1-yl]benzoyl]-2,4-dihydro-1,3-benzoxazin-8-yl]-5-fluoro-2-(3-oxa-8-azabicyclo[3.2.1]octan-8-yl)benzoic acid]",3.1 nM
17,"CC1(F)CN(c2cc(Cl)c(C(=O)N3COc4c(cccc4-c4cc(N5C6CCC5COC6)c(C(=O)O)cc4F)C3)c(Cl)c2)C1 [Compound 1-11, 4-[3-[2,6-Dichloro-4-(3-fluoro-3-methylazetidin-1-yl)benzoyl]-2,4-dihydro-1,3-benzoxazin-8-yl]-5-fluoro-2-(3-oxa-8-azabicyclo[3.2.1]octan-8-yl)benzoic acid]",2.1 nM
18,"O=C(O)c1cc(F)c(-c2cccc3c2OCN(C(=O)c2c(Cl)cc(N4CC(O)(C(F)(F)F)C4)cc2Cl)C3)cc1N1C2CCC1COC2 [Compound 1-12, 4-[3-[2,6-Dichloro-4-[3-hydroxy-3-(trifluoromethyl)azetidin-1-yl]benzoyl]-2,4-dihydro-1,3-benzoxazin-8-yl]-5-fluoro-2-(3-oxa-8-azabicyclo[3.2.1]octan-8-yl)benzoic acid]",16 nM
19,"O=C(O)c1cc(F)c(-c2cccc3c2OCN(C(=O)c2c(Cl)cc(N4CC5(CC5)C4)cc2Cl)C3)cc1N1C2CCC1COC2 [Compound 1-13, 4-[3-[4-(5-Azaspiro[2.3]hexan-5-yl)-2,6-dichlorobenzoyl]-2,4-dihydro-1,3-benzoxazin-8-yl]-5-fluoro-2-(3-oxa-8-azabicyclo[3.2.1]octan-8-yl)benzoic acid]",2.4 nM
20,"O=C(O)c1cc(F)c(-c2cccc3c2OCN(C(=O)c2c(Cl)cc(N4CC(OC(F)(F)F)C4)cc2Cl)C3)cc1N1C2CCC1COC2 [Compound 1-14, 4-[3-[2,6-Dichloro-4-[3-(trifluoromethoxy)azetidin-1-yl]benzoyl]-2,4-dihydro-1,3-benzoxazin-8-yl]-5-fluoro-2-(3-oxa-8-azabicyclo[3.2.1]octan-8-yl)benzoic acid]",4.4 nM
21,"CC1(C#N)CN(c2cc(Cl)c(C(=O)N3COc4c(cccc4-c4cc(N5C6CCC5COC6)c(C(=O)O)cc4F)C3)c(Cl)c2)C1 [Compound 1-15, 4-[3-[2,6-Dichloro-4-(3-cyano-3-methylazetidin-1-yl)benzoyl]-2,4-dihydro-1,3-benzoxazin-8-yl]-5-fluoro-2-(3-oxa-8-azabicyclo[3.2.1]octan-8-yl)benzoic acid]",2.7 nM
22,"O=C(O)c1cc(F)c(-c2cccc3c2OCN(C(=O)c2c(Cl)cc(N4CC(O)(c5ccccc5)C4)cc2Cl)C3)cc1N1C2CCC1COC2 [Compound 1-16, 4-[3-[2,6-Dichloro-4-(3-hydroxy-3-phenylazetidin-1-yl)benzoyl]-2,4-dihydro-1,3-benzoxazin-8-yl]-5-fluoro-2-(3-oxa-8-azabicyclo[3.2.1]octan-8-yl)benzoic acid]",11 nM
